Measurements: patent US11045435B2, “Methods for treating ocular diseases” (NATUREWISE BIOTECH & MEDICALS CORPORATION, priority 2016, dated 2021)

Assays:
VEGF = VEGF levels in retina, Western Blot, streptozotocin-induced diabetic retinopathy; type: in vivo, Sprague-Dawley female rats
HUVECs [1] = experiment: NaIO3-induced injury in HUVECs (MTT); type: cell-based, human; settings: 72 h
Description: (§1) MTT assay was used to measure the viability of ARPE-19 cells and HUVECs. 2×10^5 ARPE-19 cells or 5×10^4 HUVECs were seeded in 96-well plates ([…]) and allowed to grow overnight. Negative control was prepared by adding 100 μl medium without cells. The cells were then treated with fresh medium with COMPOUND I (0.03, 0.1, 0.3, 1, 3 and 10 μg/ml) and/or oxidants (NaIO3, H2O2, t-BHP and NaN3) for 12, 24, or 72 hours (200 μl/well). The vehicle control group was treated with vehicle. 20 μl MTT (5 mg/ml) was added to wells, and incubated for another 4 h. After incubation, the medium was discarded and 100 μl DMSO was added to solubilize formazan produced from MTT by the viable cells. Absorbance was measured at 570 nm using a microplate reader (Bio-Rad Laboratories, Inc., CA). Cells viability was calculated according to the following formula: Viability of cells (%)=(absorbance in tested sample−absorbance in negative control)/(absorbance in vehicle control−absorbance in negative control)×100%.

ARPE-19 cells [2] = experiment: MTT viability / proliferation of ARPE-19 cells; type: cell-based, human; settings: 72 h
Description: (§2) ARPE-19 cells were grown in DMEM/F12 medium supplemented with 10% FBS, 100 units/ml penicillin G, and 100 μg/ml streptomycin sulfate. HUVECs were grown in vascular cell basal medium supplemented with endothelial cell growth kit. Cells were incubated in a humidified incubator at 37° C. under 5% CO2 and 95% air.
as §1

ARPE-19 cells [3] = experiment: NaN3-induced injury in ARPE-19 cells (MTT); type: cell-based, human; settings: 72 h
Description: as §1

ARPE-19 cells [4] = experiment: t-BHP-induced injury in ARPE-19 cells (MTT); type: cell-based, human; settings: 0.03 μg/ml to 10 µg/ml, 12 h
Description: as §1

HUVECs [5] = experiment: MTT viability / proliferation of HUVECs; type: cell-based, human; settings: 72 h
Description: as §2, §1

ARPE-19 cells [6] = experiment: Hypoxia-induced injury in ARPE-19 cells (MTT); type: cell-based, human; settings: 72 h
Description: as §1
(§3) Cells were allowed to attach overnight, and then exposed to COMPOUND I or vehicle under hypoxic condition for 72 h. Hypoxic conditions (1% O2, 5% CO2 and 94% N2) were maintained by using a temperature and humidity controlled environmental C-chamber by O2 and CO2 controllers (Proox Model 110 and Pro CO2 model 120, Biospherix Ltd., Redfield, N.Y., USA) with N2 and CO2 gas sources.

ARPE-19 cells [7] = experiment: H2O2-induced injury in ARPE-19 cells (MTT); type: cell-based, human; settings: 3 μg/ml and 10 μg/ml; 400, M and 600 μM H2O2; 24 h
Description: as §1

[8] = Hypoxia-induced injury in HUVECs (MTT); type: cell-based; settings: human, 1% O2, read-out: decrease of viability in hypoxic condition
Description: as §1, §3

HUVECs [9] = experiment: NaN3-induced injury in HUVECs (MTT); type: cell-based, human; settings: 72 h
Description: as §1

HUVECs [10] = experiment: H2O2-induced injury in HUVECs (MTT); type: cell-based, human; settings: 10 μg/ml, 24 h
Description: as §1

mouse model of CNV = experiment: Laser-induced CNV mouse model (FP, FFA, OCT); type: in vivo, C57BL/6J mice
Description: Male C57BL/6J mice (BioLASCO Taiwan Co.) were maintained within the Animal Center at Taipei Medical University (TMU) and the CNV study was performed in accordance with ARVO statement and the experimental protocols were approved by the Institutional Animal Care and Use Committee of TMU (LAC-2017-0130). To create CNV, mice were anesthetized by injection of Balanzine (10% xylazine) (10 mg/kg) and Ketamine (80 mg/kg). The rupture of Bruch's membrane-choroid was achieved by laser photocoagulation (Micron III system, Phoenix Research Laboratories, Pleasanton, Calif.) using CNV laser burns of four spots (0.1-second duration, 250 mW) approximately two disc-diameters away from the optic disc. […]
The OCT module of the Micron III (Phoenix Research Laboratories, Pleasanton, Calif.) retinal imaging microscope was used to obtain images from retinal layers. […] Three retinal layers were defined and measured in the C57BL/6 mice included in this study: the inner layer, which comprises the retinal nerve fiber layer (RNFL), the ganglion cell layer (GCL), and the inner plexiform layer (IPL); the middle layer, which comprises the inner nuclear layer (INL), the outer plexiform layer (OPL), the outer nuclear layer (ONL), and the outer limiting membrane (OLM); and the outer layer, which comprises the inner and outer segments (IS/OS) of the photoreceptors and the retinal pigment epithelium.

HUVECs [11] = experiment: t-BHP-induced injury in HUVECs (MTT); type: cell-based, human; settings: 12 h; for reversal of t-BHP-induced injury: 200 I-M t-BHP; for enhancement of t-BHP-induced injury: 10 μg/ml
Description: as §1

Structure (SMILES): COc1ccc(COc2c(/C=C/C(=O)NO)ccc(OC)c2CC=C(C)C)cc1 [COMPOUND I]
- VEGF level in diabetic eyes, in words (VEGF; 0.5% and 1%): markedly suppressed
- VEGF level (Western Blot), DR animals as 100% (VEGF; 0.5% eye drops tid 6 weeks): 77%
- VEGF level (Western Blot), DR rats as 100% (VEGF; 1.0% eye drops tid 6 weeks): 50%
- effect on 300 μg/ml NaIO3-induced injury (HUVECs [1]; 0.03 μg/ml to 1 μg/ml, 300 μg/ml NaIO3): reversed
- effect on viability in NaIO3-induced injury (HUVECs [1]; 10 μg/ml): significantly enhanced the viability
- effect on cell growth (ARPE-19 cells [2]; 0.03 μg/ml to 1 μg/ml): did not affect cell growth
- inhibition at 10 µg/mL (ARPE-19 cells [2]; Homo sapiens, ARPE-19, 10 μg/ml): 36%
- effect on NaN3-induced injury (ARPE-19 cells [3]): significantly reversed
- effect on 200 μM t-BHP-induced injury (ARPE-19 cells [4]): reversed
- effect on cell growth (HUVECs [5]; 0.03 μg/ml to 1 μg/ml): did not affect cell growth
- inhibition at 10 µg/mL (HUVECs [5]; Homo sapiens, HUVEC, 10 μg/ml): 47%
- effect on cells in hypoxic condition (ARPE-19 cells [6]; 0.03 μg/ml to 10 μg/ml except 3 μg/ml): had no effect
- increase of viability in hypoxic condition (ARPE-19 cells [6]; 3 μg/ml, 1% O2): 22%
- effect on H2O2-induced injuries (ARPE-19 cells [7]): reversed
- cytotoxicity at 72 h, 10 μg/ml [8]: 98%
- enhancement of NaN3-induced injury (HUVECs [9]; 10 µg/ml, 3 mM NaN3): 72%
- effect on NaN3-induced injury (HUVECs [9]; From 0.03 μg/ml): didn't affect
- enhancement of NaN3-induced injury (HUVECs [9]; […], 0.3 mM NaN3): 65%
- enhancement of NaN3-induced injury (HUVECs [9]; […], 1 mM NaN3): 52%
- enhancement of H2O2-induced injury (HUVECs [10]; 200 μM H2O2): 41%
- enhancement of H2O2-induced injury (HUVECs [10]; 400 μM H2O2): 10%
- leaky area (FFA) (mouse model of CNV; 25 mg/kg/d oral for 7 or 28 days): significantly reduced
- tissue hyperplasia resulted from laser damage (mouse model of CNV; 25 mg/kg/d oral, day 7 and day 28): ameliorated
- reversal of t-BHP-induced injury (HUVECs [11]; 1 μg/ml): 26%
- reversal of t-BHP-induced injury (HUVECs [11]; 3 μg/ml): 28%
- enhancement of t-BHP-induced injury (HUVECs [11]; 50 μM t-BHP): 40%
- enhancement of t-BHP-induced injury (HUVECs [11]; 100 μM t-BHP): 20%
- enhancement of t-BHP-induced injury (HUVECs [11]; 200 μM t-BHP): 51%
